Measurements taken from BindingDB's records for doi:10.1021/jm010988n (University of Regensburg, 2002).

Biological target: Platelet-derived growth factor receptor (Mus musculus)
Test: The cells were stimulated with PDGF (100 ng/mL) for 10 min at room temperature. Then the cell lysates were analyzed by SDS-PAGE and immunoblotting with anti-phosphotyrosine antibodies. Quantification of IC50 values was based on the intensity of the signal for autophosphorylated PDGF receptor. Titration was done using four to ei

IC50 [µM] | IC50 (pH 7.4) [µM] | SMILES
5.7 |  | O=C(c1cc2ccccc2[nH]1)c1cc2cc(OC(=O)C3CCC3)ccc2[nH]1 [2-(1H-indol-2-ylcarbonyl)-1H-indol-5-yl cyclobutanecarboxylate]
 | 20 | COc1ccc2[nH]c(C(=O)c3cc4cc(OC)ccc4[nH]3)cc2c1 [Bis(5-methoxy-1H-2-indolyl)methanone]
 | 20 | O=C(c1cc2ccccc2[nH]1)c1cc2cc(OCc3ccccc3)ccc2[nH]1 [5-(benzyloxy)-2-(1H-indol-2-ylcarbonyl)-1H-indole]

SMILES | IC50 [µM] | IC50 (pH 7.4) [µM]
O=C(c1cc2ccccc2[nH]1)c1cc2cc(OCCCCI)ccc2[nH]1 [5-(4-Iodobutoxy-1H-2-indolyl)(1H-2-indolyl)methanone] |  | 12.5
